ChEMBL document CHEMBL5528076, “Development of Selective Pyrido[2,3-d]pyrimidin-7(8H)-one-Based Mammalian STE20-Like (MST3/4) Kinase Inhibitors” (J Med Chem, 2024)

What was measured:
[1] = biological target: T1, Serine/threonine-protein kinase 24 (Homo sapiens, UniProt Q9Y6E0); test: Inhibition of MST3 (unknown origin) expressed in HEK293T cells using NanoGlo as substrate incubated for 20 hrs by NanoBRET assay; format: cell-based
Target sequence in this assay (Q9Y6E0 whole entry): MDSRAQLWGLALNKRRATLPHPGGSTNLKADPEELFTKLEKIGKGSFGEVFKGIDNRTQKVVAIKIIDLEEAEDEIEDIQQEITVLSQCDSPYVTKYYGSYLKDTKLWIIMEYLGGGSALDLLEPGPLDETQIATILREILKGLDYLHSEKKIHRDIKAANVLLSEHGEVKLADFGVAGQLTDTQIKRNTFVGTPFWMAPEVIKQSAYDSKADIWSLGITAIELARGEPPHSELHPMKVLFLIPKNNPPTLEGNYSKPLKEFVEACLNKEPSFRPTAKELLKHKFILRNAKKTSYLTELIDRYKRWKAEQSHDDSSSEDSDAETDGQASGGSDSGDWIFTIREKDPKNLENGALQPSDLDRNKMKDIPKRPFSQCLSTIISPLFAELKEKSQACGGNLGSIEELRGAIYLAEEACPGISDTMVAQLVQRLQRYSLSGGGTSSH

[2] = biological target: T2, Serine/threonine-protein kinase 4 (Homo sapiens) (UniProt Q13043); test: Binding affinity to recombinant MST1 (unknown origin) assessed as change in melting temperature by DSF analysis
T2 sequence (whole entry): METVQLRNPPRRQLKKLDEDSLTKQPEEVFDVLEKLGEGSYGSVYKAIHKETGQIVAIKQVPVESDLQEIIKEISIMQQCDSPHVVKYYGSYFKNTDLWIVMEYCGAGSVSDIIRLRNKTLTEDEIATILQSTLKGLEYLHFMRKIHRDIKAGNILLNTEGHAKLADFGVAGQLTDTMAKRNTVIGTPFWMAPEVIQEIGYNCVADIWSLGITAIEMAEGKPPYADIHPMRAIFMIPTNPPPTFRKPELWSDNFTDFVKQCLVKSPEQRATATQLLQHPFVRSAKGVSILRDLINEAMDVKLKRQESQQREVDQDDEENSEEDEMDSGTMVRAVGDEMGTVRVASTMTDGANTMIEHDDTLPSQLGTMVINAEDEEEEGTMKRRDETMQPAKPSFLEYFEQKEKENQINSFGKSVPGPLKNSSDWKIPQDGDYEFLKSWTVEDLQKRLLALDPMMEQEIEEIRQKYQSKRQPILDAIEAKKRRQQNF

[3] = biological target: Serine/threonine-protein kinase PAK 1 (Homo sapiens) (UniProt Q13153); test: Binding affinity to recombinant PAK1 (unknown origin) assessed as change in melting temperature by DSF analysis
[4] = biological target: Serine/threonine-protein kinase SIK2 (Homo sapiens, UniProt Q9H0K1); test: Inhibition of SIK2 (unknown origin) expressed in HEK293T cells using NanoGlo as substrate incubated for 20 hrs by NanoBRET assay; format: cell-based
[5] = biological target: T3, Serine/threonine-protein kinase 26 (Homo sapiens, UniProt Q9P289); test: Inhibition of MST4 (unknown origin) expressed in HEK293T cells using NanoGlo as substrate incubated for 20 hrs by NanoBRET assay; format: cell-based
Target sequence in this assay (Q9P289 whole entry): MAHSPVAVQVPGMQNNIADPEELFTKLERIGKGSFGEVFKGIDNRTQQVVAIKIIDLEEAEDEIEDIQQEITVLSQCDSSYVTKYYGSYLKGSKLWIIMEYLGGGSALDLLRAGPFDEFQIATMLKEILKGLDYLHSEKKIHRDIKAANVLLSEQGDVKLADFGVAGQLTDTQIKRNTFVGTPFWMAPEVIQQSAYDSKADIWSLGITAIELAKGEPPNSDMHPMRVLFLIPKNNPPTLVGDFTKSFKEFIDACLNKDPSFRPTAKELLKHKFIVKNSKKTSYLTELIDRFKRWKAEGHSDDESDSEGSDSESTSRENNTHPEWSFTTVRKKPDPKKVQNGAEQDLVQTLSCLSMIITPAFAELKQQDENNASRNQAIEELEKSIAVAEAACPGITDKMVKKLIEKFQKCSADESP

[6] = biological target: T4, Serine/threonine-protein kinase 4 (Homo sapiens, UniProt Q13043); test: Inhibition of MST1 (unknown origin) expressed in HEK293T cells using NanoGlo as substrate incubated for 20 hrs by NanoBRET assay; format: cell-based
T4 sequence (Q13043 whole entry): T2 sequence (whole entry)

[7] = biological target: T3, Serine/threonine-protein kinase 26; test: Binding affinity to recombinant MST4 (unknown origin) assessed as change in melting temperature by DSF analysis
Target sequence in this assay (Q9P289 2-416 limits assumed): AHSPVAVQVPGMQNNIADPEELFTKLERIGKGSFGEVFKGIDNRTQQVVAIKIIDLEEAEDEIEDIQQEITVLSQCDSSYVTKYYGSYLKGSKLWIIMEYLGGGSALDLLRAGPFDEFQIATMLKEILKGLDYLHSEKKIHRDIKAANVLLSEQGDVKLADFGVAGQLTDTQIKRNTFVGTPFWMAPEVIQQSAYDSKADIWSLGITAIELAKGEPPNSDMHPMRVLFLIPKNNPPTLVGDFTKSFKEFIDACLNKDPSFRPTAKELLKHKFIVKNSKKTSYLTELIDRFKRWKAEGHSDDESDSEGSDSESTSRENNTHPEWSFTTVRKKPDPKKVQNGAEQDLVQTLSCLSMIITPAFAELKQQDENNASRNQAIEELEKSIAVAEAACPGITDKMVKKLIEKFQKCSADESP

[8] = biological target: T1, Serine/threonine-protein kinase 24; test: Binding affinity to recombinant MST3 (unknown origin) assessed as change in melting temperature by DSF analysis
Target sequence in this assay (Q9Y6E0 whole entry, looked up): as the sequence (Q9Y6E0 whole entry) above

[9] = biological target: T5, Serine/threonine-protein kinase 3 (Homo sapiens, UniProt Q13188); test: Inhibition of MST2 (unknown origin) expressed in HEK293T cells using NanoGlo as substrate incubated for 20 hrs by NanoBRET assay; format: cell-based
T5 sequence (Q13188 whole entry): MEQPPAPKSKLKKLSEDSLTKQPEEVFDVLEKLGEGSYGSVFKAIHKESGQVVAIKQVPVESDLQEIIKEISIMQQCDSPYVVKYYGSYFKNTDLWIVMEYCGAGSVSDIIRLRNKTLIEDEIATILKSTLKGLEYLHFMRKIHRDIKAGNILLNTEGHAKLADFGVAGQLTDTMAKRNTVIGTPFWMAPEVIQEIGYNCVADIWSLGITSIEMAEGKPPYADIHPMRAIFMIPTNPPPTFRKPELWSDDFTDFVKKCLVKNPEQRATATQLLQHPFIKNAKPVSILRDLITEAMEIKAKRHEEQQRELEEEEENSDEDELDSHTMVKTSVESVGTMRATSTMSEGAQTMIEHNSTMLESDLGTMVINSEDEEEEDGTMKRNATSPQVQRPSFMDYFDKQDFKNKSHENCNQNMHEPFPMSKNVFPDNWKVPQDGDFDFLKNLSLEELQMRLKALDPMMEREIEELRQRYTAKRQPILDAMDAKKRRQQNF

[10] = biological target: T6, Serine/threonine-protein kinase 3 (Homo sapiens) (UniProt Q13188); test: Binding affinity to recombinant MST2 (unknown origin) assessed as change in melting temperature by DSF analysis
T6 sequence (whole entry): T5 sequence (Q13188 whole entry)

Serine/threonine-protein kinase PAK 1 (Homo sapiens), sequence (Q13153 whole entry): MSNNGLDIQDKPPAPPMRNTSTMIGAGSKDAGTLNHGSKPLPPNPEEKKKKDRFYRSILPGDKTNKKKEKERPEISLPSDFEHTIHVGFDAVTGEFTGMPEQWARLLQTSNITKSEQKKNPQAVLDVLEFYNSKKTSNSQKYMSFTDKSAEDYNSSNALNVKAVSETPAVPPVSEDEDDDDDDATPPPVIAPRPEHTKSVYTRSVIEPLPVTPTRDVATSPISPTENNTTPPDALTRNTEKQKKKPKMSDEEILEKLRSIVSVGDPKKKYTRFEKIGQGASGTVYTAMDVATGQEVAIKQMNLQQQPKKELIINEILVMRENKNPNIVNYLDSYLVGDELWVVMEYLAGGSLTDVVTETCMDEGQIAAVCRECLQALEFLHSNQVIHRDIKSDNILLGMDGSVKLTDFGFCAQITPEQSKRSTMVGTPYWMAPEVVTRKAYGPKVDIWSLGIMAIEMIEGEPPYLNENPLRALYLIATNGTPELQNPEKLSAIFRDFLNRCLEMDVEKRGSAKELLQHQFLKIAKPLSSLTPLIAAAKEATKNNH
Serine/threonine-protein kinase SIK2, sequence (Q9H0K1 whole entry): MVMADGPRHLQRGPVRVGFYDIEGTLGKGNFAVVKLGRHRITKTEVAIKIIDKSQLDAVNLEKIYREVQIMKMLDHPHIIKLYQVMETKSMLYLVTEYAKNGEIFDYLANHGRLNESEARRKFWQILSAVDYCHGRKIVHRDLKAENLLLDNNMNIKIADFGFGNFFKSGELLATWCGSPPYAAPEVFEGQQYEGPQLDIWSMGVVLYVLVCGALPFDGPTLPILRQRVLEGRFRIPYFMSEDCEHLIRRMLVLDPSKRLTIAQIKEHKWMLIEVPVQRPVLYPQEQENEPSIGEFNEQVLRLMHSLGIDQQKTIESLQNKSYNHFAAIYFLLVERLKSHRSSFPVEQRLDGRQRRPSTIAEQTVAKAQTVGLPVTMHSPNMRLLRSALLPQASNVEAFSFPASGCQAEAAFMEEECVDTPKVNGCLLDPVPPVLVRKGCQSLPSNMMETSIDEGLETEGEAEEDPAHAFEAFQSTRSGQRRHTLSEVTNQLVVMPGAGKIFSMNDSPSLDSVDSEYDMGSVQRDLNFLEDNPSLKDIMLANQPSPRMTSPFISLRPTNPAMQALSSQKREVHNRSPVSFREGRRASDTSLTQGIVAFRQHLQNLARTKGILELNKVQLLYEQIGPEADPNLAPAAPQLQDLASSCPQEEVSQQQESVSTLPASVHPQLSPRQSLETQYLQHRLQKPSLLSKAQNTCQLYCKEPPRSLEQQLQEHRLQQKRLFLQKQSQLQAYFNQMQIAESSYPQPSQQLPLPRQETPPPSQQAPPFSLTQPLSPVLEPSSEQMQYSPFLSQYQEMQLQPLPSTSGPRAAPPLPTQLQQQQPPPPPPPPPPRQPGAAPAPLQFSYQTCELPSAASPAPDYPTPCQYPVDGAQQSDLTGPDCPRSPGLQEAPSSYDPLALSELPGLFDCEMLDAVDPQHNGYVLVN

EC50 [1] | ΔTm [2] | ΔTm [3] | EC50 [4] | EC50 [5] | EC50 [6] | ΔTm [7] | ΔTm [8] | EC50 [9] | ΔTm [10] | SMILES
 |  |  |  |  | 30.4 µM |  |  | 4.6 µM |  | CNc1ncc2cc(-c3ccc(-c4cccc(C)n4)cc3Cl)c(=O)n(C[C@H]3OC[C@H](N)CO3)c2n1
0.288 µM | 4 °C | 5 °C | 0.871 µM | 3.6 µM | 7.7 µM | 5.8 °C |  | 4.4 µM | 9 °C | CNc1ncc2cc(-c3ccc(-c4cccc(C)n4)cc3Cl)c(=O)n(CCO)c2n1
0.251 µM | 2.8 °C | 4 °C | 0.162 µM | 4.3 µM | 26.3 µM | 7.2 °C | 7.9 °C | 19.8 µM | 4.4 °C | CNc1ncc2cc(-c3ccc(-c4cccc(C)n4)cc3Cl)c(=O)n(CCCN)c2n1
0.06 µM | 6 °C | 8.6 °C | 0.078 µM | 0.8 µM | 1.6 µM | 7.8 °C |  | 1.8 µM | 8 °C | CNc1ncc2cc(-c3ccc(-c4cccc(C)n4)cc3Cl)c(=O)n(CCC3CCNCC3)c2n1
0.048 µM | 7.9 °C | 8.4 °C | 0.016 µM | 0.5 µM | 0.66 µM | 8.2 °C | 10.8 °C | 0.552 µM | 10.8 °C | CNc1ncc2cc(-c3ccc(-c4cccc(C)n4)cc3Cl)c(=O)n(C[C@H]3CC[C@H](N)CC3)c2n1
1.2 µM | 1.6 °C | 1.3 °C | 1.4 µM | 14.8 µM | > 50 µM | 3.3 °C | 5.5 °C | 13.7 µM | 1.6 °C | CNc1ncc2cc(-c3ccc(-c4cccc(C)n4)cc3Cl)c(=O)n(CCN)c2n1

Second part, the molecule before the results:

SMILES | EC50 [1] | ΔTm [2] | ΔTm [3] | EC50 [4] | EC50 [5] | EC50 [6] | ΔTm [7] | ΔTm [8] | EC50 [9] | ΔTm [10]
CNc1ncc2cc(-c3ccc(-c4cccc(C)n4)cc3Cl)c(=O)n(CCCO)c2n1 | 0.382 µM | 3.4 °C | 4.5 °C | 0.505 µM | 4.5 µM | 6.7 µM | 5 °C | 6.2 °C | 6 µM | 6.3 °C
CNc1ncc2cc(-c3ccc(-c4cccc(C)n4)cc3Cl)c(=O)n(CCCCCO)c2n1 | 0.316 µM | 2.4 °C | 6 °C | 0.266 µM | 2.2 µM | 3 µM | 5.5 °C | 6.6 °C | 2.8 µM | 6.1 °C
CNc1ncc2cc(-c3ccc(-c4cccc(C)n4)cc3Cl)c(=O)n(CCCCO)c2n1 | 0.244 µM | 3.8 °C | 5 °C | 0.138 µM | 4 µM | 3.4 µM | 5 °C | 5.7 °C | 3.6 µM | 7.1 °C
CNc1ncc2cc(-c3ccc(-c4cccc(C)n4)cc3Cl)c(=O)[nH]c2n1 |  | 0 °C | 0 °C | 1.6 µM |  |  | 0 °C | 0.6 °C |  | 0.3 °C
CNc1ncc2cc(-c3ccc(-c4cccc(C)n4)cc3Cl)c(=O)n(CCCCCN)c2n1 | 0.092 µM | 5.2 °C | 6.3 °C | 0.061 µM | 2.1 µM | 2.5 µM | 7.1 °C | 9.2 °C | 2.5 µM | 10.7 °C
CNc1ncc2cc(-c3ccc(-c4cccc(C)n4)cc3Cl)c(=O)n(CCCOC)c2n1 | 0.594 µM | 3.6 °C | 5.1 °C | 1.7 µM | 7.6 µM | 9.2 µM | 4.1 °C | 5.1 °C | 9.3 µM | 6.2 °C
CNc1ncc2cc(-c3ccc(-c4cccc(C)n4)cc3Cl)c(=O)n(CCCCOC)c2n1 | 0.614 µM | 3.3 °C | 4.8 °C | 1.3 µM | 5.5 µM | 5.3 µM | 3.6 °C | 6.2 °C | 4.6 µM | 8.6 °C
